From US6469138B1, “Thrombospondin receptor binding peptides” (Washington University, priority 1993, dated 2002)
“Also recorded” adds a separate entry of the source. One block for each molecule: values may come before it. Where a SMILES comes first, the peptide text is derived from it. Where no end group is shown, it is not given here.

Assays:
Solubility of peptides = format: physicochemical; details: for solubility: insoluble at higher concentrations, read-out: solubility limit
G361 cells [1] = assay: Direct attachment of G361 cells to peptides adsorbed on microtiter wells (cell adhesion assay); format: cell-based, human; details: peptide adsorbed to plastic wells; cells 1 hr at 37° C.; in words
Procedure: Equimolar concentrations of peptides shown in FIG. 1A were evaluated as attachment factors for G361 cells. Peptides C4 (¤), 4N (●), 4N1 (▴), 4N1-1 (♦), 4N2 (▪) and 4C ([formula]) were adsorbed to microtiter plates at the indicated concentrations. Cells were added to the wells and incubated for 1 hour at 37° C. The attached cells were quantitated as described under “Materials and Methods” hereinbelow, and the actual absorbance due to endogenous cellular phosphatase hydrolysis of p-Nitrophenyl phosphate at 410 nm is plotted.
Microtiter wells were adsorbed with peptides C7 (▪), 7N (●), 7N3 (▴), 7N3-1 (♦), 7N2 (▪), 7N2-2 (∘), 7N3-2 (▴) and 7C, 7N1 or 7N2-1 ([formula]) at various concentrations and the attachment of G361 cells was determined. The numbers of cells attached to these peptides were correlated with the cellular phosphatase activity which is expressed as absorbance at 410 nm.
(§1) Cell Adhesion Assay—Cell adhesion was performed in 96-well plates by conventional procedures as previously described (Prater et al., 1991; Kosfeld and Frazier, 1992). […] The efficiency of coupling of all peptides was greater than 90% as judged by UV absorbance. […]
After blocking, cells were allowed to attach for 1 hr at 37° C. to substrate-coated wells or beads. In some tests, inhibition was determined by adding peptide inhibitors of cell attachment to each well along with the cells. […]

G361 cells [2] = assay: Inhibition by soluble peptides of G361 cell attachment to immobilized rCBD of TS1; format: cell-based, human; details: for inhibition of G361 cell attachment to rCBD (in words): soluble peptide inhibitor, immobilized rCBD
Procedure: FIGS. 3A and 3B show the effect of the active subpeptides of C4 and C7 on G361 cell attachment to the rCBD of TS1. To microtiter wells containing immobilized rCBD (10 μg/ml), G361 cells were added with (FIG. 3A) 4N1-1 (●), 7N3-1 (▪), 4N1-1 plus 7N3-1 (▴) and with (FIG. 3B) 4N1 (▪), 7N3 (●) and 4N1 plus 7N3 (▴). The cells were incubated for 1.5 hr in the wells and cell attachment was determined. The effects of these subpeptides on cell attachment are expressed as percent relative to the maximum cell attachment for each test where 100% is the number of cells binding to rCBD-coated well in the absence of peptide inhibitors.
(§2) After blocking, cells were allowed to attach for 1 hr at 37° C. to substrate-coated wells or beads. In some tests, inhibition was determined by adding peptide inhibitors of cell attachment to each well along with the cells. After removal of non-adhering cells, cells attached to immobilized substrates were quantitated with endogenous cellular phosphatase activity which is measured by absorption at 410 nm as previously described (Prater et al., 1991). Each assay was carried out in duplicate and each peptide was tested in 3 separate tests at 3 or more different concentrations.
To be sure that the active peptides from C4 and C7 contain the sequences that are relevant for attachment of cells to the CBD, the shorter, more soluble active peptides were tested as soluble inhibitors of the binding of G361 cells to rCBD immobilized on plastic wells. […] In contrast, 4N1-1 and 4N1, the active subpeptides for C4, are insoluble at concentrations higher than 0.2 mM and thus must be tested as soluble inhibitors at concentrations below this solubility limit. It should be noted that inclusion of peptides in the cell attachment assay at these concentrations had no adverse effects on the cells. The results of this complementary bioassay confirmed those of the direct cell adhesion assays (FIGS. 1 and 2). […] The inhibition was dose-dependent at peptide concentrations <0.1 mM for 4N1 and 7N3 and <0.2 mM for 4N1-1 and 7N3-1. […] Each peptide is present at ½ the indicated concentration. In the case of 4N1 plus 7N3, the inhibition was nearly complete (87%). […] To evaluate the contribution of adjacent sequences to activity, peptide 7N2-2 which contained the N-terminal sequence of 7N3-1, and 7N3-1 were examined in inhibition studies.

G361 human melanomas = assay: Attachment of G361 cells to immobilized TS1 or LM; format: cell-based; details: protein-coated wells
Procedure: (§3) FIGS. 6A, 6B, 6C and 6D show the attachment of four cell types to immobilized TS-1 and LM. Wells were coated with the indicated concentrations of TS1 (▪) or LM (●). Assays were performed as described under “Methods” hereinafter with (FIG. 6A)—G361 human melanomas; (FIG. 6B)—K562 erythroleukemia cells; (FIG. 6C)—HT1080 fibrosarcomas; and (FIG. 6D)—C32 amelanotic melanomas added to the wells.
as §1, with “1992). Synthetic peptides were solubilized with 6 N guanidine HCl (GnHCl) because some hydrophobic peptides were insoluble at concentrations approaching 1 mM in TBS.” for “1992).”
as §2, with “Each assay was carried out in duplicate and each peptide was tested in 3 separate tests at 3 or more different concentrations.” left out

[3] = test system: K562 human erythroleukemia cells; assay: Attachment of K562 cells to immobilized TS1, LM or rCBD; format: cell-based; details: protein-coated wells
Procedure: as §3
as §1, with “1992). Synthetic peptides were solubilized with 6 N guanidine HCl (GnHCl) because some hydrophobic peptides were insoluble at concentrations approaching 1 mM in TBS.” for “1992).”
as §2, with “Each assay was carried out in duplicate and each peptide was tested in 3 separate tests at 3 or more different concentrations.” left out

[4] = test system: HT1080 human fibrosarcomas; assay: Attachment of HT1080 cells to immobilized TS1 or LM; format: cell-based; details: protein-coated wells
Procedure: as §3
as §1, with “1992). Synthetic peptides were solubilized with 6 N guanidine HCl (GnHCl) because some hydrophobic peptides were insoluble at concentrations approaching 1 mM in TBS.” for “1992).”
as §2, with “Each assay was carried out in duplicate and each peptide was tested in 3 separate tests at 3 or more different concentrations.” left out

C32 human melanoma = assay: Attachment of C32 cells to immobilized TS1 or LM; format: cell-based; details: protein-coated wells
Procedure: as §3
as §1, with “1992). Synthetic peptides were solubilized with 6 N guanidine HCl (GnHCl) because some hydrophobic peptides were insoluble at concentrations approaching 1 mM in TBS.” for “1992).”
as §2, with “Each assay was carried out in duplicate and each peptide was tested in 3 separate tests at 3 or more different concentrations.” left out

[5] = biological target: thrombospondin 1 (TS1) receptor
[6] = biological target: thrombospondin 1 (TS1) receptor; remark: listed apart in the source
[7] = biological target: thrombospondin 1 (TS1) receptor; remark: listed apart in the source

solubility (Solubility of peptides): ≤ 200 µM
Molecule: CSCC[C@H](NC(=O)[C@@H](NC(=O)[C@@H](NC(=O)[C@H](Cc1ccc(O)cc1)NC(=O)[C@H](Cc1ccccc1)NC(=O)[C@@H](N)CCCNC(=N)N)C(C)C)C(C)C)C(=O)N[C@@H](Cc1c[nH]c2ccccc12)C(=O)N[C@@H](CCCCN)C(=O)N[C@@H](CCC(N)=O)C(=O)N[C@H](C(=O)N[C@H](C(=O)N[C@@H](CCC(N)=O)C(=O)N[C@@H](CO)C(=O)O)[C@@H](C)O)C(C)C [4N1, Arg-Phe-Tyr-Val-Val-Met-Trp-Lys-Gln-Val-Thr-Gln-Ser] (H-RFYVVMWKQVTQS-OH; N-terminus and C-terminus assumed)

solubility (in words) (Solubility of peptides): highly soluble
Molecule: CC[C@H](C)[C@H](N)C(=O)N[C@@H](CCCNC(=N)N)C(=O)N[C@H](C(=O)N[C@H](C(=O)N[C@@H](CCSC)C(=O)O)C(C)C)C(C)C [7N3-1, Ile-Arg-Val-Val-Met] (H-IRVVM-OH; N-terminus and C-terminus assumed)

Molecule: FIRVVMYEGKK [7N3]
cell attachment activity (direct attachment of G361 cells to immobilized peptide) (G361 cells [1]): significant activity
inhibition of G361 cell attachment to rCBD-coated surfaces (G361 cells [2]; rCBD 10 μg/ml immobilized, soluble peptide, combinations: each peptide at ½ the indicated concentration): ~50%

Molecule: RFYVVM [4N1-2]
cell attachment activity (direct attachment of G361 cells to immobilized peptide) (G361 cells [1]): little or no activity
inhibition of G361 cell attachment to rCBD (in words) (G361 cells [2]): as potent as the longer 4N1-1; also recorded: active

Molecule: TS1: thrombospondin 1, extracellular matrix protein
attachment of G361 cells to immobilized protein (G361 human melanomas): bound well
attachment of K562 cells to immobilized protein [3]: much more avidly than to LM
attachment of HT1080 cells to immobilized protein [4]: bound well
attachment of C32 cells to immobilized protein (C32 human melanoma): much more avidly than to LM

Molecule: Ile-Arg-Val-Val-Gly (IRVVG)
inhibition of G361 cell attachment to rCBD (in words) (G361 cells [2]): inactive

Molecule: Ile-Glu-Val-Val-Met (IEVVM)
inhibition of G361 cell attachment to rCBD (in words) (G361 cells [2]): inactive

Molecule: rCBD: recombinant COOH-terminal cell binding domain of TS1 expressed in bacteria as protein A-CBD fusion protein
attachment of K562 cells to immobilized protein [3]: bound well

solubility (Solubility of peptides): ≤ 200 µM
Molecule: CSCC[C@H](NC(=O)[C@@H](NC(=O)[C@@H](NC(=O)[C@H](Cc1ccc(O)cc1)NC(=O)[C@H](Cc1ccccc1)NC(=O)[C@@H](N)CCCNC(=N)N)C(C)C)C(C)C)C(=O)N[C@@H](Cc1c[nH]c2ccccc12)C(=O)N[C@@H](CCCCN)C(=O)O [4N1-1, Arg-Phe-Tyr-Val-Val-Met-Trp-Lys]

Molecule: Gly-Arg-Val-Val-Met (GRVVM)
inhibition of G361 cell attachment to rCBD (in words) (G361 cells [2]): inactive

inhibition of G361 cell attachment to rCBD-coated wells [5]: 25 % inhibition
inhibition of G361 cell attachment to LM-coated wells (LM receptor): 50 % inhibition
inhibition of K562 cell attachment to immobilised rCBD [6]: 28 % inhibition
Molecule: IRVVM [7N3-1]

inhibition of G361 cell attachment to rCBD-coated wells [5]: 30 % inhibition
Molecule: RFYVVMWKQVTQS [4N1]

inhibition of G361 cell attachment to rCBD-coated wells [5]: 50 % inhibition
Molecule: FIRVVMYEGKK [7N3]

attachment of G361 cells to peptide adsorbed to microtiter wells (absorbance at 410 nm) (% of the maximum activity of 4N1) [7]: 60
inhibition of G361 cell attachment to rCBD-coated wells [5]: 30 % inhibition
inhibition of G361 cell attachment to LM-coated wells (LM receptor): 32 % inhibition
inhibition of K562 cell attachment to immobilised rCBD [6]: 36 % inhibition
Molecule: RFYVVMWK [4N1-1]
